The record followed here is US20150119825A1, “OPTIMIZING UNGUAL TREATMENT BY QUANTITATIVE AUTORADIOGRAPHY” (GALDERMA RESEARCH & DEVELOPMENT, priority 2012, published 2015).

A short description of data set [1]: In vitro diffusion of [^14C]-Terbinafine at the nail bed of drilled human nails, quantitative whole body autoradiography (QWBA). The conditions noted are these: for diffusion of radioactivity between the holes: 2 mm and 4 mm spaced holes. The format is in vitro ADME. An excerpt:
Four frozen human cadaver fingertips with nails were used. Each fingernail contained two series of three holes, one set at 2 mm apart and the other set at 4 mm apart.
The samples were placed in a Transwell plate containing 3 milliLiters (mL) of culture medium. Three of the nails received an application of the radiolabeled test item during one hour; one received an application of a non-radiolabeled test item. A finite dose (5 microLiters (μL)) of formulation was applied on the nail surface. Incubation was conducted for 1 hour at 37° C., 5% CO2 and saturated hygrometry. At the end of the incubation, excess of formulation was removed from the nail surface.
Each sample was frozen onto a support using adapted QWBA procedures. Sections were then taken through each fingernail onto tape and were analyzed using QWBA methods to determine the diffusion of radioactivity at the nail bed level from each site of administration. A 3-dimensional graph of the concentration of radioactivity was then created to visualize the diffusion through the nail matrix.
In vitro diffusion of [^14C]-Terbinafine on nail beds was studied on drilled human hand nails. Four samples were used through the study and were drilled as follows: • On each sample: 3 holes of 0.6 mm diameter, with 2 mm distance between each hole and 3 holes of 0.6 mm diameter, with 4 mm distance between each hole • 3 samples were treated with 10% [^14C]-Terbinafine in amphoteric solution One sample was treated with placebo • Treatment duration: 1 hour • 5 μL of test item were applied on each nail • Incubation at 37° C., 5% CO2 and saturated hygrometry during 1 hour • At the end of the incubation period, the excess of test item was removed and the samples were stored at −80° C. before processing for autoradiography analysis.
(§1) Three of the nails received an application of the radiolabeled test item, whilst the other nail received an application of the unlabelled test item as follows: • Samples A, B and C (Treated samples): 5 μL of the formulation containing 10% [^14C]-Terbinafine were applied on the surface of each of the nail samples. • Sample D (Control sample): 5 μL of the formulation containing 10% Terbinafine were applied on the surface of the nail sample.
(§2) The culture plate containing the nail samples was placed in a culture incubator kept at 37° C., 5% CO2 and saturated hygrometry. The duration of the nail treatment was 1 hour.
At the end of the treatment period, the excess of the formulation remaining on the nail was wiped off using a dried cotton swab and five successive cotton swabs wetted with absolute ethanol. These cotton swabs were discarded. The nail samples were then stored at −80° C., and shipped frozen for analysis by autoradiography.
The samples (four human fingernails) were received deeply frozen on solid CO2 and immediately transferred to storage in a freezer set to maintain a temperature of −80° C. A supporting block was prepared to support each sample during sectioning. Specifically, a mould was filled with 2% carboxymethylcellulose solution and frozen in a mixture of dry ice and hexane. The frozen finger was fixed in a horizontal position on a cork disc using a cryo-matrix and the disc was then fixed to the carboxymethylcellulose block with a further cryo-matrix. The finger was embedded so that the nail was facing to the side and to ensure that each series of holes was as horizontal as possible (dependant on the alignment of the drilled holes). A further cryomatrix was added around each finger to provide additional support during sectioning. The frozen blocks were stored in a freezer set to maintain a temperature of −20° C. prior to and following sectioning.
Each nail was sectioned through until immediately adjacent to the uppermost hole in the series. Horizontal sections (approximately 30 μm thick) were then taken through each fingernail onto adhesive tape. […]

A short description of data set [2]: Radioactivity level in the culture medium (receiver chamber) at the end of the treatment period, liquid scintillation counting. The conditions noted are these: for radioactivity in culture medium, mean / radioactivity in culture medium, whole receiver chamber: 1 hour treatment; for radioactivity in culture medium, single counts: 5 μL of 10% formulation on drilled nail, 1 hour, 37° C., triplicate counts, hydrochloride; for Applied dose (%) found in culture medium: applied dose 1106175 dpm. Type of data set: in vitro ADME, human. As to the method: Each nail sample was then placed on a cell culture insert. Each insert was introduced into a receiver chamber of a 6-well culture plate. The receiver chamber was filled with 3 mL HHBSS containing antibiotics (2% penicilline-streptomycine).
as §1, §2
In order to check the specificity of the incubation system (no radioactive contamination due to leakage of applied formulation through the insert), the radioactivity level was measured in the culture medium at the end of the treatment period. Each receiver chamber medium was controlled in triplicate by liquid scintillation counting as follows: 100 μL of culture medium was directly counted by liquid scintillation counting using 10 mL of HIONIC FLUOR available from Perkin Elmer. The results presented in the table below show a very low radioactivity level in culture medium of sample A and sample C. The radioactivity level only represented 1.6% of the applied dose in sample A and 0.1% of the applied dose in sample C. These radioactivity levels were considered negligible and could not compromise the results of the study.

“And” between values parts separate entries of the source, which are not always exact repeats. Equal entries are not always repeated. “Also recorded” adds a separate entry of the source. Structures can show the parent of a compound that is named as a salt.

As for `CN(C/C=C/C#CC(C)(C)C)Cc1cccc2ccccc12` [Terbinafine], in data set [1] (Nails A to C, 2 mm and 4 mm hole sets), the “localization of diffusion (plots of FIGS. 4, 6, 8, 10, 12, 14)” value is reported as “particularly localized to the holes in the nail”.

Take `CN(C/C=C/C#CC(C)(C)C)Cc1cccc2ccccc12` [[^14C]-Terbinafine, Terbinafine hydrochloride]: the “radioactivity in culture medium, mean” value in data set [2] (Mean sample A) is 575.7 dpm/100 μL; in data set [2] (Mean sample B, LOQ 54 dpm), 46.3 dpm/100 μL; in data set [2] (Mean sample C, LOQ 54 dpm), 54.7 dpm/100 μL. Further, the “radioactivity in culture medium, whole receiver chamber” value is reported as 17270 dpm/3 mL in data set [2] (Mean sample A), “BLQ” in data set [2] (Mean sample B) and 1640 dpm/3 mL in data set [2] (Mean sample C). Also, the “radioactivity in culture medium, single counts” value in data set [2] (Sample A) was 494 dpm/100 μL and 621 dpm/100 μL and 612 dpm/100 μL; in data set [2] (Sample B), 48 dpm/100 μL and 49 dpm/100 μL and 42 dpm/100 μL; in data set [2] (Sample C), 49 dpm/100 μL and 52 dpm/100 μL and 63 dpm/100 μL. Further, the “Applied dose (%) found in culture medium” value in data set [2] (Sample A) is 1.6%; in data set [2] (Sample B), 0%; in data set [2] (Sample C), 0.1%. Also, the “diffusion of radioactivity between the holes” value is “little diffusion of radioactivity between the holes” in data set [1] (Nail A, 1 hour); “little diffusion of radioactivity between the holes” in data set [1] (Nail B, 1 hour); “little diffusion of radioactivity between the holes” in data set [1] (Nail C, 1 hour, holes did not receive a full application). Also, the “concentrations of radioactivity between the holes” value was “decrease to background levels between the holes” in data set [1] (Nail A, 4 mm spacing, 1 hour); “decrease to background levels between the holes” in data set [1] (Nail B, 4 mm spacing, 1 hour); “decrease to background levels between the holes” in data set [1] (Nail C, 4 mm spacing, 1 hour); “decreased to background radiation levels between the holes; also recorded: decrease to background levels between the holes” in data set [1] (overall conclusion, 4 mm spaced holes, hydrochloride). For the same molecule, the “diffusion at the nail bed level around the holes” value in data set [1] (overall conclusion) is given as “diffusion of the radiolabeled drug at the nail bed level around the holes”. Also, in data set [1] (overall conclusion), the “radioactive signal on the surface of nail plates” value was “marked radioactive signal”. Further, the “diffusion of radioactivity between the holes, 4 mm versus 2 mm spacing” value in data set [1] (overall conclusion, Nails A to C, hydrochloride) is given as “little diffusion of radioactivity between the 4 mm spaced holes compared to the 2 mm spaced holes; also recorded: little diffusion of radioactivity between the 4 mm spacing holes compared to the 2 mm spacing holes”.
